Converted amounts (≈) assume the structure as drawn. Where two headings read alike, the source gives them in different places.
How the values were obtained:
[1] = Solubility of ranolazine in aqueous solutions by pH; format: physicochemical
[2] = tested on: patients with chronic stable angina pectoris; assay: Exercise treadmill test (ETT), IR ranolazine.2HCl, placebo-controlled crossover (Example 3); format: in vivo, human; conditions: for Time to onset angina (mean) / Exercise Duration (mean) / Time to 1 mm ST depression (mean): all patients
Procedure: In this Example, the safety and anti-ischemic effects of high plasma ranolazine levels in a large group of angina patients was evaluated and the duration of any effects during steady-state dosing with bid and tid regimens was assessed. In this Example, patients with chronic stable angina pectoris who were responsive to conventional antianginal drugs were treated with 3 ranolazine.2HCl dosing regimens: 267 mg tid, 400 mg bid and 400 mg tid IR Formulations of Example 1. Exercise testing parameters and ranolazine free base concentrations were determined at peak and trough plasma levels.
The study involved double-blind, placebo-controlled randomized treatment phase with 4 treatments (placebo, ranolazine.2HCl 400 mg bid, ranolazine.2HCl 267 mg tid, and ranolazine.2HCl 400 mg tid), 4 treatment sequences and 5 double-blind treatment periods in an extended period Latin square design on pre-qualified patients who were responsive to known antianginal therapy and had stable exercise times.
Human patients with chronic stable angina pectoris, of at least 3 months' duration, that had responded to conventional antianginal therapy were considered candidates. In addition, patients had to have electrocardiogrpahic (ECG) evidence of exercise-induced ischemia based upon horizontal or down-sloping ST-segment depression of ≧1 mm that persisted in 3 consecutive beats during an exercise stress test and an ECG pattern that would not interfere with interpretation of ST-segment changes. The latter criterion specifically excluded patients with left ventricular hypertrophy, pre-excitation, conduction abnormalities, or pacemaker rhythm. Other exclusion criteria included unstable angina or myocardial infarction within the preceding 3 months, heart failure defined as New York Heart Association Class HI or IV, significant valvular or congenital heart disease that was uncorrected, need for digoxin or long-acting nitrate therapy, labile diabetes mellitus, or other serious conditions that would confuse follow-up evaluation.
These immediate release ranolazine.2HCl dosing regimens (267 mg tid, 400 mg bid, 400 mg tid) and a placebo were administered during the treatment phase. Patients took one capsule containing either 267 mg or 400 mg of ranolazine dihydrochloride, or placebo at 8:00 a.m., 4:00 p.m., 8:00 p.m. and 12:00 a.m. All capsules were identical in appearance. Patients were randomized to 1 of 4 treatment sequences, with 25% of the patients assigned to each sequence. Each treatment was administered for 1 week, with one treatment repeated during a fifth 1 week period.
To qualify patients receiving their usual antianginal medications underwent a screening exercise treadmill test (ETT-1) using a Sheffield modified Bruce protocol. If the time to onset angina was […], an antianginal drug was withdrawn and treatment with single-blind placebo was initiated. After 1 to 2 weeks, patients returned for another ETT (ETT-2). If the time to onset angina decreased by 1 minute compared with ETT-1, the patient was considered to have completed the first qualifying ETT. If the decrease in time to onset angina was not ≧1 minute, a second antianginal drug could be withdrawn and the above sequence repeated. If necessary, a third antianginal drug could be withdrawn according to this procedure in order for the patient to qualify. Long-acting nitrates were always withdrawn first; beta-blockers; and calcium antagonists could be withdrawn in either order from patients not receiving long-acting nitrates. After the patient achieved the first qualifying ETT (ETT-2), a second qualifying ETT (ETT-3) was performed in which the time to onset angina had to be within i 15% of that observed during ETT-2. In addition, each of the qualifying ETTs had to have ECG signs of ischemia (≧1 mm horizontal or down-sloping ST-segment depression in 3 consecutive beats). Patients meeting these criteria were used in the study. […]

[3] = MARISA ranolazine plasma concentration; format: in vivo; conditions: human, oral; for concentration at 4 h: read-out: Ranolazine Plasma Concentration, Peak, mean (SD); for concentration at 12 h: read-out: Ranolazine Plasma Concentration, Trough, mean (SD)
Procedure: Methods: Patients withdrawn from other anti-anginal drugs with reproducible angina-limited exercise duration and ≧1 mm ST depression were randomized to Ran (500 mg bid, 1000 mg bit and 1500 mg bid) and matching placebo (Pbo) in a double-blind, four-period, Latin square crossover design. Exercise testing with a modified Bruce protocol was performed at both trough (12 hr after dosing) and peak (4 hr after dosing). Results: 49 centers in the USA, Czech Republic, Poland and Canada randomized 191 patients. 168 completed all 4 double-blind treatment periods; 7 more completed 3 of 4 periods.
Results: Ran improved exercise duration times in comparison to the placebo.

[4] = Solution pH 7.59 (unbuffered water)
[5] = Peak, ranolazine.2HCl IR 267 mg tid
[6] = Peak, ranolazine.2HCl IR 400 mg bid
[7] = Peak, ranolazine.2HCl IR 400 mg tid
[8] = Trough, ranolazine.2HCl IR 267 mg tid
[9] = Trough, ranolazine.2HCl IR 400 mg bid
[10] = Trough, ranolazine.2HCl IR 400 mg tid

With `COc1ccccc1OCC(O)CN1CCN(CC(=O)Nc2c(C)cccc2C)CC1` (racemic) [Ranolazine, (±)-N-(2,6-dimethylphenyl)-4-[2-hydroxy-3-(2-methoxyphenoxy)propyl]-1-piperazine-acetamide] the “USP Solubility Class” value ([1]; Solution pH 4.81) was “Freely soluble”, the “USP Solubility Class” value ([1]; Solution pH 4.89) was “Soluble” and the “USP Solubility Class” value ([1]; Solution pH 4.90) was “Soluble”. The “USP Solubility Class” value ([1]; Solution pH 5.04) was “Soluble”, the “USP Solubility Class” value ([1]; Solution pH 5.35) was “Sparingly soluble” and the “USP Solubility Class” value ([1]; Solution pH 5.82) was “Slightly soluble”. For the same compound, the “USP Solubility Class” value ([1]; Solution pH 6.46) was “Slightly soluble”, the “USP Solubility Class” value ([1]; Solution pH 6.73) was “Very slightly soluble” and the “USP Solubility Class” value ([1]; Solution pH 7.08) was “Very slightly soluble”. The “USP Solubility Class” value [1, 4] was “Very slightly soluble”, the solubility [1, 4] was 240 µg/mL (≈ 0.561 mM) and the “USP Solubility Class” value ([1]; Solution pH 7.73) was “Very slightly soluble”. The “USP Solubility Class” value ([1]; Solution pH 12.66) was “Very slightly soluble”, the solubility ([1]; aqueous solution, aqueous buffer, Solution pH 4.81) was 161000 µg/mL (≈ 377 mM) and the solubility ([1]; aqueous solution, aqueous buffer, Solution pH 4.89) was 73800 µg/mL (≈ 173 mM). It also gave a solubility ([1]; aqueous solution, aqueous buffer, Solution pH 5.04) of 49400 µg/mL (≈ 116 mM), a solubility ([1]; aqueous solution, aqueous buffer, Solution pH 5.35) of 16700 µg/mL (≈ 39.1 mM) and a solubility ([1]; aqueous solution, aqueous buffer, Solution pH 5.82) of 5480 µg/mL (≈ 12.8 mM). It also gave a solubility ([1]; aqueous solution, aqueous buffer, Solution pH 6.46) of 1630 µg/mL (≈ 3.81 mM), a solubility ([1]; aqueous solution, aqueous buffer, Solution pH 6.73) of 830 µg/mL (≈ 1.94 mM) and a solubility ([1]; aqueous solution, aqueous buffer, Solution pH 7.08) of 390 µg/mL (≈ 0.912 mM). The solubility ([1]; aqueous solution, aqueous buffer, Solution pH 7.73) was 170 µg/mL (≈ 0.398 mM), the solubility ([1]; aqueous solution, aqueous buffer, Solution pH 12.66) was 180 µg/mL (≈ 0.421 mM) and the solubility ([1]; aqueous solution, pH 4.9, aqueous buffer, Solution pH 4.90) was 76400 µg/mL (≈ 179 mM). The “Time to onset angina (mean)” value ([2]; Peak (1 hour after dose), ranolazine.2HCl IR 267 mg tid) was 9.40 min, the “Time to onset angina (mean)” value ([2]; Peak (1 hour after dose), ranolazine.2HCl IR 400 mg bid) was 9.33 min and the “Time to onset angina (mean)” value ([2]; Peak (1 hour after dose), ranolazine.2HCl IR 400 mg tid) was 9.33 min. The “Exercise Duration (mean)” value [2, 5] was 10.87 min, the “Time to 1 mm ST depression (mean)” value [2, 5] was 9.99 min and the “Exercise Duration (mean)” value [2, 6] was 10.83 min. For the same compound, the “Time to 1 mm ST depression (mean)” value [2, 6] was 9.86 min, the “Exercise Duration (mean)” value [2, 7] was 10.84 min and the “Time to 1 mm ST depression (mean)” value [2, 7] was 9.94 min. For the same compound, the “Time to onset angina (mean)” value ([2]; Trough (approx. 8 hours after dosing), ranolazine.2HCl IR 267 mg tid) was 8.78 min, the “Time to onset angina (mean)” value ([2]; Trough (approx. 8 hours after dosing), ranolazine.2HCl IR 400 mg bid) was 8.77 min and the “Time to onset angina (mean)” value ([2]; Trough (approx. 8 hours after dosing), ranolazine.2HCl IR 400 mg tid) was 8.65 min. For the same compound, the “Exercise Duration (mean)” value [2, 8] was 10.56 min, the “Time to 1 mm ST depression (mean)” value [2, 8] was 9.22 min and the “Exercise Duration (mean)” value [2, 9] was 10.55 min. The “Time to 1 mm ST depression (mean)” value [2, 9] was 9.22 min, the “Exercise Duration (mean)” value [2, 10] was 10.60 min and the “Time to 1 mm ST depression (mean)” value [2, 10] was 9.31 min. For the same compound, the “threshold plasma ranolazine free base concentration for anti-ischemic activity detected during ETT” value ([2]; estimated from peak and trough results) was “above 550 ng per mL”, the “prolongation of time to onset of angina, duration of exercise and time to 1-mm ST-segment depression over placebo, on average” value ([2]; peak plasma concentrations, three dosing regimens) was “about 0.33 minutes” and the concentration at 4 h ([3]; 500 mg BID) was 1120 ng/mL. It also gave a concentration at 12 h ([3]; 500 mg BID) of 846 ng/mL, a concentration at 4 h ([3]; 1000 mg BID) of 2460 ng/mL and a concentration at 12 h ([3]; 1000 mg BID) of 1950 ng/mL. For the same compound, the concentration at 4 h ([3]; 1500 mg BID) was 3940 ng/mL and the concentration at 12 h ([3]; 1500 mg BID) was 3270 ng/mL.

From patent publication US20020052377A1, “Method for treating angina” (priority 2000, published 2002)
